Here are results for two compounds from US20050220861A1, “Colonic release compostion” (priority 2002, published 2005).

On the set-up of data set [1]: Cmax (prednisolone) / AUC (prednisolone): unit not given beside the values. The following applies: cited from earlier work.
For data set [2] the following is noted: human, in vivo, po. How it is done: Four phase I studies have been completed. In the first of these, an ethyl cellulose to amylose ratio of 5:1 was used with a 10% weight gain. The second and third studies, investigated the effect of a thicker coat (20% weight gain) at a 4:1 ethylcellulose to amylose ratio. All other features of the comparison formulation were the same.
(§1) Capsules containing coated pellets of prednisolone sodium metasulphobenzoate, equivalent to 60 mg prednisolone, were administered to seven healthy, fasted volunteers. Progress of the dose through the gastrointestinal tract was followed over 24 hours by gamma-scintigraphy after the co-administration of ethylcellulose coated ^111indium labelled non-pareils. Plasma levels of prednisolone were determined at various time points up to 48 hours after administration. Excreted drug pellets were harvested over five days and residual drug levels determined.
(§2) The trial comprised a combined gamma scintigraphic and pharmacokinetic study with excreted pellet analysis to the same design as the first Phase I study (above) following administration of the prednisolone sodium metasulphobenzoate ester at a dose of 94.2 mg, equivalent to 60 mg of prednisolone. In this second study, the thickness of the coating of the pellets was increased and the proportion of amylose was increased in the coat.
(§3) The trial comprised a combined gamma scintigraphic and pharmacokinetic study with excreted pellet analysis to the same design as the first Phase I study (above) following administration of prednisolone sodium metasulphobenzoate ester at a dose of 94.2 mg, equivalent to 60 mg prednisolone. In this third study, administering the coated prednisolone pellets to volunteers in the fed and fasted state was examined.
The pellets were produced as described in Example 2.
This trial used a higher dose of prednisolone sodium metasulphobenzoate, equivalent to 100 mg of prednisolone.

For data set [3] the following is noted: for drug content of the formulation released from the pellets / prednisolone sodium metasulphobenzoate retained in the excreted pellets, mean: 3rd Phase I. The method, then:
as §1, §2, §3

On the set-up of data set [4]: unit not given beside the values. The following applies: in vivo, po, 40 mg; cited from earlier work.
Setting [5] is: McIntyre et al 1985, 20 mg, rectal.

SMILES strings stand for the structures. Where two headings read alike, the source gives them in different places.

In the case of `C[C@]12C=CC(=O)C=C1CC[C@@H]1[C@@H]2[C@@H](O)C[C@@]2(C)[C@H]1CC[C@]2(O)C(=O)COP(=O)(O)O` [Prednisolone-21-phosphate], in data set [1] (setting [5]), the “AUC (prednisolone)” value is 599 ± 310 and the “Cmax (prednisolone)” value is reported as 148 ± 75.
On to `C[C@]12C=CC(=O)C=C1CC[C@@H]1[C@@H]2[C@@H](O)C[C@@]2(C)[C@H]1CC[C@]2(O)C(=O)COC(=O)c1cccc(S(=O)(=O)[O-])c1.[Na+]` [Prednisolone metasulphobenzoate, prednisolone sodium metasulphobenzoate], for which the “AUC (prednisolone)” value in data set [2] (60 mg) was 1441 ± 541; in data set [1] (in vivo, 60 mg), 632 ± 509; in data set [4] it was 2189 ± 475. The “Cmax (prednisolone)” value is 168 ± 56 in data set [2] (60 mg); 147 ± 79 in data set [1] (in vivo, 60 mg); 242 ± 58 in data set [4]. Further, the AUC is 152 ng·mL·h in data set [2] (100 mg) and 632 ± 509 ng·mL·h in data set [1] (in vivo, 60 mg). The Cmax (commonly the maximum level reached in the sampled fluid or tissue) was 18.9 ng/mL in data set [2] (100 mg) and 147 ± 79 ng/mL in data set [1] (in vivo, 60 mg). Moreover, in data set [3] (1st Phase I, 60 mg oral, average of all subjects), the “amount of prednisolone recovered from pellets harvested from the faeces” value was 2.5 ± 1.12 mg. Moreover, the “prednisolone recovered from excreted pellets, % of the administered dose” value in data set [3] (1st Phase I, all cases) is on record as “less than 5%”. In addition, the “drug excreted in the pellets, % of the administered dose” value in data set [3] (2nd Phase I) is “less than 2%”. The “arrival of the drug pellets at the ileo-caecal junction” value in data set [3] (2nd Phase I, amylose:ethylcellulose 1:4, 20% weight gain) was found to be 5.9 ± 2.0 h. The “mean quantity of drug excreted in the pellets, determined as prednisolone sodium metasulphobenzoate” value in data set [3] (2nd Phase I, dose 94.2 mg ester) was determined as 1.7 mg. Further, the “drug content of the formulation released from the pellets” value in data set [3] (fasted) and in data set [3] (fed) was “over 90%” in each case. Moreover, the “prednisolone sodium metasulphobenzoate retained in the excreted pellets, mean” value in data set [3] (fasted, dose 94.2 mg ester) is 6.1 ± 1.0 mg; in data set [3] (fed, dose 94.2 mg ester), 3.1 ± 1.2 mg.
